From patent US12180195B1, “6-(6-bromo-2-oxo-2H-chromen-3-yl)-4-(2,4-dichlorophenyl)-2-alkoxynicotinonitrile as an antimicrobial compound” (KING FAISAL UNIVERSITY, priority 2023, dated 2024)

Legend:
Format in all cases: cell-based
[1] = tested on: different microbes; experiment: Antimicrobial testing, overall statement in words; settings: summary of Tables 1 and 2, bacteria and fungi
Description: (§1) The agar plate disc-diffusion method was applied. Sterilized filter papers (6 mm in diameter) were wetted with 10 μL of a solution of compounds 6-(6-bromo-2-oxo-2H-chromen-3-yl)-4-(2,4-dichlorophenyl)-2-ethoxynicotinonitrile 1 or 6-(6-bromo-2-oxo-2H-chromen-3-yl)-4-(2,4-dichlorophenyl)-2-methoxynicotinonitrile 2 to be tested, containing […], and the discs were allowed to air dry. The discs were then placed onto the surface of agar plates (nutrient agar for bacteria and Sabouraud's dextrose agar for fungi) seeded with the test organism. Each plate contained 15 mL of the agar medium, previously seeded with 0.2 mL of the broth culture of each organism pregrown for 18 hours. The plates were incubated at 37° C. for 48 hours, and 72 hours for fungi. The inhibition zones were measured in mm. Discs impregnated with DMSO were used as a control, and its inhibition zone was subtracted from the tested compound actual inhibition zone.
Their antibacterial activity was screened against gram positive bacteria namely Bacillus cereus and Staphylococcus aureus and gram-negative bacterial strains namely Pseudomonas aeruginosa and Escherichia coli, while their antifungal activity was screened against Aspergillus flavus and Chrysosporium keratinophilum.

[2] = tested on: Bacillus Cereus; experiment: Agar plate disc-diffusion, antibacterial inhibition zone; settings: nutrient agar, 37° C., 48 hours, DMSO zone subtracted
Description: as §1
(§2) The results of the antimicrobial testing can be observed in Tables 1 and 2, below, using ciprofloxacin as a reference.

[3] = tested on: Escherichia coli; experiment: as above; settings: nutrient agar, 37° C., 48 hours, DMSO zone subtracted
Description: as §1, §2

[4] = tested on: Staphylococcus aureus; experiment: as above; settings: nutrient agar, 37° C., 48 hours, DMSO zone subtracted
Description: as §1, §2

[5] = tested on: Pseudomonas aeruginosa; experiment: as above; settings: nutrient agar, 37° C., 48 hours, DMSO zone subtracted
Description: as §1, §2

[6] = tested on: Chrysosporium keratinophilum; experiment: Agar plate disc-diffusion, antifungal inhibition zone; settings: Sabouraud's dextrose agar, 72 hours, DMSO zone subtracted
Description: as §1, §2

[7] = tested on: Aspergillus flavus; experiment: as above; settings: Sabouraud's dextrose agar, 72 hours, DMSO zone subtracted
Description: as §1, §2

[8] = A = concentration of comp. = 10,000 μL
[9] = B = concentration of comp. = 30,000 μL
[10] = C = concentration of comp. = 50,000 μL

Structure (SMILES) | antimicrobial activity (in words) [1] | inhibition zone [2, 8] | inhibition zone [2, 9] | inhibition zone [2, 10] | inhibition zone [3, 8] | inhibition zone [3, 9] | inhibition zone [3, 10] | inhibition zone [4, 8] | inhibition zone [4, 9] | inhibition zone [4, 10] | inhibition zone [5, 8] | inhibition zone [5, 9] | inhibition zone [5, 10] | inhibition zone [6, 8] | inhibition zone [6, 9] | inhibition zone [6, 10] | inhibition zone [7, 8] | inhibition zone [7, 9] | inhibition zone [7, 10]
CCOc1nc(-c2cc3cc(Br)ccc3oc2=O)cc(-c2ccc(Cl)cc2Cl)c1C#N [Compound 1, 6-(6-bromo-2-oxo-2H-chromen-3-yl)-4-(2,4-dichlorophenyl)-2-ethoxynicotinonitrile] | high antimicrobial activities | 26 mm | 27 mm | 38 mm | 30 mm | 38 mm | 54 mm | 13 mm | 20 mm | 27 mm | 24 mm | 31 mm | 42 mm | 22 mm | 33 mm | 39 mm | 26 mm | 28 mm | 39 mm
O=C(O)c1cn(C2CC2)c2cc(N3CCNCC3)c(F)cc2c1=O [Cip., ciprofloxacin, reference compound] | – | 29 mm | 30 mm | 42 mm | 30 mm | 39 mm | 60 mm | 43 mm | 44 mm | 53 mm | 29 mm | 30 mm | 53 mm | 29 mm | 30 mm | 53 mm | 29 mm | 30 mm | 42 mm
COc1nc(-c2cc3cc(Br)ccc3oc2=O)cc(-c2ccc(Cl)cc2Cl)c1C#N [Compound 2, 6-(6-bromo-2-oxo-2H-chromen-3-yl)-4-(2,4-dichlorophenyl)-2-methoxynicotinonitrile] | high antimicrobial activities | 27 mm | 28 mm | 40 mm | 28 mm | 37 mm | 49 mm | 14 mm | 21 mm | 25 mm | 24 mm | 27 mm | 42 mm | 28 mm | 29 mm | 46 mm | 17 mm | 21 mm | 29 mm
